Converted amounts (≈) assume the structure as drawn. Values belong to the molecule of their own block, whether it stands above or below them.
Legend:
[1] = test system: penicillinase; experiment: Color change / absorbance spectrum in penicillinase; format: biochemical; details: for Absorbance/time response in penicillinase, comparison with CENTA: FIG. 5
Description: FIG. 3 is a set of absorbance spectrum charts showing the color change of Compound 1 (ANT) in the presence of a β-lactamase came with a definite shift in Compound 1 (ANT) absorbance spectrum upon adding penicillinase, thus cleaving the β-lactam ring and expelling the 3′-leaving group. […] As the β-lactam ring is cleaved by the enzymes, the peak at 260 nm disappears.
FIG. 5 is a comparison between Compound 1 (ANT) response and CENTA response.
FIG. 6 is a chart showing deprotected ANT-maleimide in penicillinase, measuring the absorbance of conjugate at different time points.

[2] = test system: gram-negative species; details: cited from earlier work
[3] = test system: Staphylococcus aureus; details: cited from earlier work
[4] = test system: B. cereus; experiment: Microdilution assay, antibacterial efficacy (MIC); format: cell-based; details: Bacillus cereus, Gram +, βL producing Yes, 18 h, 37° C.
[5] = test system: P. aeruginosa PA01; experiment: Microdilution assay, antibacterial efficacy (MIC); format: cell-based; details: Pseudomonas aeruginosa, Gram −, βL producing Yes, 18 h, 37° C.
Protocol: (§1) The antibacterial effect of Substrate Compound 2 was tested against Staphylococcus aureus, Escherichia coli, MRSA, and Pseudomonas aeruginosa in a microdilution assay. Substrate Compound 2 was dissolved in dimethyl sulfoxide at a concentration of 2.56 mg/mL and diluted to a concentration of 256 μg/mL in sterile phosphate-buffered saline. Substrate Compound 2 solutions and a control of 10% dimethyl sulfoxide in cation-adjusted Mueller Hinton broth (CMHB) or tryptic soy broth (TSB) were serially diluted 1:2 with cation-adjusted Mueller Hinton broth or tryptic soy broth in a 96-well plate. Cation-adjusted Muller-Hinton broth (CMHB) is commercially available from MilliporeSigma (Billerica, MA, USA).
(§2) Bacteria in its log phase was added to the wells at a final concentration of 10^5 CFU/mL. Positive controls of bacteria cultured in only media and negative controls of cation-adjusted Mueller Hinton broth or tryptic soy broth without bacteria were included. After eighteen hours of shaking at 100 rpm at 37° C., the optical density at 600 nm (OD600) was measured using a BioTekQ® normalized bacteria density was calculated using equation 1: […]

[6] = test system: S. aureus 25923; experiment: Microdilution assay, antibacterial efficacy (MIC); format: cell-based; details: Staphylococcus aureus, Gram +, βL producing No, 18 h, 37° C.
Protocol: as §1, §2

[7] = test system: S. aureus 29213; experiment: Microdilution assay, antibacterial efficacy (MIC); format: cell-based; details: Staphylococcus aureus, Gram +, βL producing Yes, 18 h, 37° C.
Protocol: as §1, §2

[8] = test system: E. coli 25922; experiment: Microdilution assay, antibacterial efficacy (MIC); format: cell-based; details: Escherichia coli, Gram −, βL producing Yes, 18 h, 37° C.
Protocol: as §1, §2

[9] = test system: β-lactamases from Bacillus cereus, Pseudomonas aeruginosa, and Enterobacter cloacae; experiment: Michaelis-Menten kinetics of hydrolysis; format: biochemical; details: compared with commercially available chromogenic β-lactamase substrates
Protocol: To further characterize substrate-enzyme relationships between Substrate Compound 2 and β-lactamases, kinetic parameters were measured using Michaelis-Menten kinetics.
Parameters were determined for Substrate Compound 2 and commercially available chromogenic β-lactamase substrates CENTA and nitrocefin as comparisons, using different β-lactamases. All kinetic experiments were performed for concentrations of Substrate Compound 2 ranging from 0.025-0.2 mg/mL with 10% DMSO, and concentrations of 4 ranging from 1.5-12.1 mg/mL in 0.15 M sodium phosphate buffer pH 7 at 37° C. Hydrolysis of Substrate Compound 2 was measured by continuously recording the change in absorbance at 410 nm on a BioTekQ® Cytation3 plate reader. The kM, kcat, and VMax values were calculated through the initial velocities and the direct fitting of the Michaelis-Menten curve to the data through GraphPad Prism software.

[10] = target: T1, β-lactamase from Enterobacter cloacae (Enterobacter cloacae, UniProt P05364); experiment: Colorimetric / UV-vis response to β-lactamase; format: biochemical; details: 10% DMSO, 37° C.
T1 construct: purchased MilliporeSigma
Protocol: (§3) Substrate Compound 2 was tested with a class B β-lactamase from Bacillus cereus (Bebrone et al., Antimicrobial Agents Chemother., 45, 1868-1871 (2001)). Substrate Compound 2 was tested with class C β-lactamases (from Pseudomonas aeruginosa (Mirsalehian et al., Iranian J. Microbiol., 6, 306-310 (2014)) and β-lactamase from Enterobacter cloacae (Seeberg, Tolxdorff-Neutzling & Wiedemann, Antimicrobial Agents Chemother., 23, 918-925 (1983)). These bacteria are present in many infections, including wounds. See, Bodey et al., Clinical Infectious Diseases, 5, 279-313 (2011) and Davin-Regli & Pages, Frontiers in Microbiology, 6, 392 (2015).
(§4) 96-well plate. Substrate Compound 2 was dissolved in DMSO at a concentration of two mg/ml. Fifteen μL of Substrate Compound 2 was added to a well of a 96-well plate. […] The samples of Substrate Compound 2 in β-lactamases from Bacillus cereus (200 U/mL in M sodium phosphate buffer, pH 7) were incubated for thirty minutes at 37° C. before the absorbance of the solution from 230 to 650 nm was measured using a BioTekQ®
(§5) Cytation3 plate reader. For the samples in Pseudomonas aeruginosa (50 U/mL in 0.15 M sodium phosphate buffer, pH 7), the absorbance was measured after ninety minutes at 37° C. […] For the samples in Enterobacter cloacae (1 U/ml in M sodium phosphate buffer, pH 7), the absorbance was measured after three hours at 37° C. […]

[11] = target: T2, β-lactamase from Pseudomonas aeruginosa (Pseudomonas aeruginosa, UniProt P24735); experiment: Colorimetric / UV-vis response to β-lactamase; format: biochemical; details: 10% DMSO, 37° C.
T2 construct: purchased MilliporeSigma
Protocol: as §3, §4, §5

[12] = target: T3, β-lactamase from Bacillus cereus (Bacillus cereus, UniProt P04190); format: biochemical
T3 construct: purchased MilliporeSigma
Protocol: as §3
The inventors measured the concentration-dependent absorbance shift in a spectral scan of Substrate Compound 2 with different concentrations (U/mL) of β-lactamase from Bacillus cereus or in phosphate-buffered saline after 45 minutes at 37° C. The absorbance signal at 410 nm increased to a maximum as a function of β-lactamase concentration. The inventors also performed these measurements for β-lactamase from Pseudomonas aeruginosa and Enterobacter cloacae.
96-well plate. […] The samples of Substrate Compound 2 in β-lactamases from Bacillus cereus (200 U/mL in M sodium phosphate buffer, pH 7) were incubated for thirty minutes at 37° C. before the absorbance of the solution from 230 to 650 nm was measured using a BioTekQ® […]

[13] = Aqueous solubility; format: physicochemical
[14] = test system: E. cloacae; experiment: Microdilution assay, antibacterial efficacy (MIC); format: cell-based; details: Enterobacter cloacae, Gram −, βL producing Yes, 18 h, 37° C.
[15] = test system: MRSA MW2; experiment: Microdilution assay, antibacterial efficacy (MIC); format: cell-based, methicillin-resistant Staphylococcus aureus; details: Staphylococcus aureus, Gram +, βL producing Yes, 18 h, 37° C.
Protocol: as §1, §2

T3 sequence (P04190 31-257): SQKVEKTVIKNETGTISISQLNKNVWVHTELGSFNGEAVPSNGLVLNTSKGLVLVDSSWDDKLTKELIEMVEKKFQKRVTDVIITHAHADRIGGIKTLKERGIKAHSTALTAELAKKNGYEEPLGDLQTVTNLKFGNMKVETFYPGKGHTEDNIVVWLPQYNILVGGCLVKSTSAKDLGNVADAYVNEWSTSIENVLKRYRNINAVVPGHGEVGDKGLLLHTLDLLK
T2 sequence (P24735 27-397): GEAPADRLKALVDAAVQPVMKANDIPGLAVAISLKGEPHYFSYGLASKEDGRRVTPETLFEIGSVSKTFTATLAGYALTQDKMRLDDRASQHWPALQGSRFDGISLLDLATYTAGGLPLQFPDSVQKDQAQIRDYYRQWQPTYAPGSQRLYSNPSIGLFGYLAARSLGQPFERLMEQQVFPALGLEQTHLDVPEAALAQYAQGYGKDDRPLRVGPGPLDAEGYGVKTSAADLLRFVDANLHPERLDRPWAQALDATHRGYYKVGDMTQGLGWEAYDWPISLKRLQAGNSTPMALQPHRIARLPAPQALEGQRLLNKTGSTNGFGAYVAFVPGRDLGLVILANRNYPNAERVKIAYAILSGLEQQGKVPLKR
T1 sequence (P05364 21-381): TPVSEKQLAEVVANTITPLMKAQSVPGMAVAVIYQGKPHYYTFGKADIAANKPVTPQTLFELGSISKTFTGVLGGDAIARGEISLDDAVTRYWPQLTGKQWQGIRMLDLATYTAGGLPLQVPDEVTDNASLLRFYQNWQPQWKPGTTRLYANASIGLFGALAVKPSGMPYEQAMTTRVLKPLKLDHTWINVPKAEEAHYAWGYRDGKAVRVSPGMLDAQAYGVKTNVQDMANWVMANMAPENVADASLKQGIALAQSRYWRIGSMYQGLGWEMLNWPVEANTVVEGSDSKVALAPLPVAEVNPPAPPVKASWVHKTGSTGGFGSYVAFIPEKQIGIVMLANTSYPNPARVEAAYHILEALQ

SMILES: O=C(Cc1cccs1)N[C@@H]1C(=O)N2C(C(=O)O)=C(CSc3ccc([N+](=O)[O-])c(C(=O)O)c3)CS[C@H]12 [CENTA]
Absorbance/time response in penicillinase, comparison with CENTA [1]: reaches its maximum absorbance at a faster rate than Compound 1 (ANT)
Antibacterial activity against gram-negative species [2]: not antibacterial
Antibacterial activity against Staphylococcus aureus [3]: some activity

Color change in penicillinase compared to PBS ([1]; 1.5 hours at 37° C.): showed a significant color change
Color change of the conjugate incubated in penicillinase or phosphate-buffered saline ([1]; Example 1, protected conjugate of ACLE and NBT): does not undergo a color change
Absorbance/time response in penicillinase, comparison with CENTA [1]: behave similarly
SMILES: COc1ccc(COC(=O)C2=C(CSc3ccc([N+](=O)[O-])cc3)CSC3C(N)C(=O)N23)cc1 (stereo not drawn) [Compound 1]
Shift of maximum absorbance peak on cleavage by penicillinase ([1]; 1.5 hours at 37° C.): maximum absorbance peak shifts from 345 nm to 410 nm

SMILES: CN(C)c1ccc(N=Nc2cccc[n+]2CC2=C(C(=O)[O-])N3C(=O)[C@@H](NC(=O)Cc4cccs4)[C@H]3SC2)cc1 [PADAC]
Antibacterial activity against gram-negative species [2]: not antibacterial
Antibacterial activity against Staphylococcus aureus [3]: some activity

SMILES: NC1C(=O)N2C(C(=O)O)=C(CSc3ccc([N+](=O)[O-])cc3)CSC12 (stereo not drawn) [Substrate Compound 2]
MIC [4]: > 128 µg/mL
MIC [5]: > 128 µg/mL
MIC [6]: 8 µg/mL (≈ 21.8 µM)
MIC [7]: 8 µg/mL (≈ 21.8 µM)
MIC [8]: > 128 µg/mL
Kinetic rate of hydrolysis by β-lactamases [9]: kinetic rate similar to commercially available chromogenic β-lactamase substrates
Color change when mixed with β-lactamase [10]: changed color from clear to yellow
Color change when mixed with β-lactamase [11]: changed color from clear to yellow
Lower detection limit of β-lactamase ([12]; absorbance at 410 nm, 45 minutes at 37° C., β-lactamase 0.78-400 U/mL): approximately 3.12 U/mL
Color change when mixed with β-lactamase ([12]; β-lactamase from Bacillus cereus, 10% DMSO, 37° C.): changed color from clear to yellow
Aqueous solubility [13]: not soluble in aqueous conditions
MIC [14]: > 128 µg/mL
MIC [15]: > 128 µg/mL

SMILES: O=C(Cc1cccs1)N[C@@H]1C(=O)N2C(C(=O)O)=C(/C=C/c3ccc([N+](=O)[O-])cc3[N+](=O)[O-])CS[C@H]12 [nitrocefin]
Antibacterial activity against gram-negative species [2]: not antibacterial
Antibacterial activity against Staphylococcus aureus [3]: some activity

Source: patent US11957690B2, “Chromogenic beta-lactamase substrate” (BROWN UNIVERSITY, priority 2018, dated 2024)
